Source: ChEMBL document CHEMBL1123322, “Muscarinic ganglionic stimulants: conformationally restrained analogues related to [4-[[N-(3-chlorophenyl)carbamoyl]oxy]-2-butynyl]trimethylammonium chloride” (1986)
Active and inactive are the calls of the source. The calls are words filed in the database; no cut-off is given here.

Columns and labels:
Assay type in all cases: functional
Rattus norvegicus [1] = organism: Rattus norvegicus; test: Compound was tested for the production of depressor effects in rat
[2] = target: T1, Muscarinic acetylcholine receptor M1 (Rattus norvegicus) (UniProt P08482); test: Muscarinic M1 receptor ganglion-stimulating activity as pressor responses in pithed rats; Inactive
T1 sequence (whole entry): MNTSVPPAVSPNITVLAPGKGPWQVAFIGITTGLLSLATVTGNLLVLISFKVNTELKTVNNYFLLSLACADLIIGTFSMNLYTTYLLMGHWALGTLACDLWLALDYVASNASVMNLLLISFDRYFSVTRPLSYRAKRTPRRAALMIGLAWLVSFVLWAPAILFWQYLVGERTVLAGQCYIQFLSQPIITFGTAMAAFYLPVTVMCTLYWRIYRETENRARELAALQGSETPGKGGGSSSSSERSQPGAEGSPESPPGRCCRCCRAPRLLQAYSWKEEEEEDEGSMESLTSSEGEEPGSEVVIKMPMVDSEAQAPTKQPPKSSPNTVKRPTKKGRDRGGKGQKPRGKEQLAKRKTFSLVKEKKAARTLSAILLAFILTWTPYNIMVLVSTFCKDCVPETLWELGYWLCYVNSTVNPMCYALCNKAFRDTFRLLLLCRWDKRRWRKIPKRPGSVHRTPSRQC

Rattus norvegicus [3] = organism: Rattus norvegicus; test: Compound was tested for the production of […] sensitive pressor response; Range 20-30 mmHg
Rattus norvegicus [4] = organism: Rattus norvegicus; test: Compound was tested for the production of piperizine sensitive pressor response

Row | Structure (SMILES) | Activity [2] | Activity (Rattus norvegicus [1]) [µM/kg] | Mean arterial blood pressure (Rattus norvegicus [3]) [mmHg] | Activity (Rattus norvegicus [4]) [µM/kg]
1 | C[N+]1(C)CCC=C(COC(=O)Nc2ccc(Cl)cc2)C1.[I-] | – | 0.1 | – | –
2 | CN1CC=C(COC(=O)Nc2cccc(Cl)c2)C1 | – | – | 20 | –
3 | C[N+]1(C)CC=C(COC(=O)Nc2cccc(Cl)c2)C1 | – | 3 | – | –
4 | CN1CCC(COC(=O)Nc2cccc(Cl)c2)CC1 | – | 0.1 | – | –
5 | C[N+]1(C)CCC(COC(=O)Nc2cccc(Cl)c2)CC1 | – | – | 20 | –
6 | C[N+]1(C)CC=C(COC(=O)Nc2ccc(Cl)cc2)CC1.[Br-] | – | – | – | 0.1
7 | CN1CCC=C(COC(=O)Nc2cccc(Cl)c2)C1 | inactive | >2 | – | –

More lines, main results first:

Row | Activity [2] | Structure (SMILES) | Activity (Rattus norvegicus [1]) [µM/kg] | Mean arterial blood pressure (Rattus norvegicus [3]) [mmHg] | Activity (Rattus norvegicus [4]) [µM/kg]
8 | inactive | Cc1cccc(NC(=O)OCC2=CCN(C)CC2)c1 | >2 | – | –
9 | inactive | C[N+]1(C)CCC=C(COC(=O)Nc2cccc(Cl)c2)C1.[I-] | >2 | – | –
10 | inactive | CN1CCC=C(COC(=O)Nc2ccccc2Cl)C1 | >2 | – | –
11 | inactive | CN1CCC=C(COC(=O)Nc2ccc(Cl)cc2)C1 | >2 | – | –
12 | inactive | CN1CC=C(COC(=O)Nc2ccc(Cl)cc2)CC1 | >2 | – | –
13 | inactive | Cc1cccc(NC(=O)OCC2C=CCN(C)C2)c1 (stereo not given) | >2 | – | –
14 | inactive | C[N+]1(C)CC=C(COC(=O)Nc2cccc(Cl)c2)CC1.Cc1ccc(S(=O)(=O)[O-])cc1 | >2 | – | 0.1
15 | inactive | CN1CC=C(COC(=O)Nc2cccc(Cl)c2)CC1 | >2 | – | –
